Data set [1] has as its system MDA-MB-231 tumor. As to the kind of experiment: Kinetics of CAR-T cell expansion and tumor uptake in MDA-MB-231 tumor bearing mice. Format: in vivo. The method, then: When the tumor sizes averaged at ˜350±60 mm^3 on day 2, up to […] of EC17 at 500 nmol/kg were given on days 2, 9, 16, 23, and 30. For ex-vivo analysis, 3 animals were taken before the next EC17 dose on days 9, 16, 23, and 30 for a total of 4 collections. For comparison, the same EC17 dose was given to 3 CAR-T mice that had ˜4.4× larger tumor sizes on day 2 (˜1555±79 mm^3). For each collection, fresh blood and tumor samples (if available) were analyzed for the presence of human CD3ε+EGFRt+ CAR-T cells by flow cytometry.
The dynamic interplay between EC17 and CAR-T cells in vivo was further analyzed using MDA-MB-231 tumor model, which was previously found to be among the highest FR expressing tumors at 103±15 pmol/mg membrane protein using a ^3H-FA-based radioligand binding assay. […] Seven days following a single EC17 dose (i.e., study day 9), human CD3ε+EGFRt+ CAR-T cells were detected in the blood of mice, with elevated numbers circulating in mice bearing larger tumors (FIGS. 62B-E). […]
For CAR-T cell analysis in the circulation, plasma was removed from a predetermined volume of whole blood collected into tubes containing ethylenediaminetetraacetic acid anticoagulant. […] A minimum of 20,000 propidium iodide negative live cell events were collected on the Gallios flow cytometer and analyzed with the Kaluza software, version 2.1 (Beckman Coulter, Brea, Calif.). […]

The subject of data set [2] is HOS-FRα tumor. The data set can be described thus: CRS toxicity and sodium fluorescein rescue in HOS-FRα tumor-bearing mice. It counts as in vivo. As to the method: All animal care and use were performed according to NIH guidelines and in compliance with protocols approved by the Purdue University Animal Use and Care Committee. Female 4 to 5-week-old NOD/SCID gamma (NSG™) mice (stock number: 005557) were purchased from The Jackson Laboratory (Bar Harbor, Me.). Unless specifically indicated, all animals were maintained on a FA-deficient diet (TestDiet, St. Louis, Mo.) upon arrival and throughout the study. To establish subcutaneous xenografts, MDA-MB-231 and HOS-FRα were implanted in the right flank region at 2.5×10^6 and 1×10^6 cells per animal, respectively. For intravenous xenografts, THP1-FRβ cells were inoculated at 5×10^6 cells per animal. Subcutaneous tumors were measured 2-3 times per week with a caliper and calculated using the ellipsoidal formula (length×width^2)/2. […] All animal doses (CAR-T cells, EC17, sodium fluorescein) were given intravenously.
Depending on the CAR-T cell dose and how EC17 is administered, tumor-bearing mice receiving FITC-specific CAR-T cells can experience severe CRS and varying degrees of body weight loss. Therefore, a CRS grading system (0-5 scale) was developed to empirically assess CRS toxicity from animals' gross morphology and social behavior to allow for better timing of CRS rescue. While grades 0 and 5 indicated normal (no CRS) or death (due to severe CRS), respectively, grades 1, 2, and 3-4 were considered mild, light-to-moderate, and severe CRS (FIG. 57A). In addition, all EC17 doses were intentionally given towards the end of any given day to allow potential CRS symptoms to develop overnight. On the days immediately following each EC17 dose, animals were scored and rescue agents such as sodium fluorescein, folic acid and leucovorin were used to mitigate CRS toxicity. In this particular instance, a batch of E2 CAR-T cells with a high EGFRt+CD4/CD8 ratio (˜93:7) was given to HOS-FRα tumor-bearing mice at a mixture of ˜2.5 million CD8 and ˜33 million CD4 on day 0 (FIG. 57B). […]

Structures are written as SMILES.

For the compound `NC1=NC2N=CC(CNc3ccc(C(=O)N[C@@H](CCC(=O)NCCNC(=S)Nc4ccc(-c5c6ccc(=O)cc-6oc6cc(O)ccc56)c(C(=O)O)c4)C(=O)O)cc3)=NC2C(=O)N1` (stereo partly shown) [EC17, FA-(γ)-ethylenediamine-FITC], the “onset of tumor response” value in data set [1] (EC17 500 nmol/kg weekly, ~4.8 million E2-CAR-T cells) was “started to respond after the second EC17 dose”. In addition, the body weight loss result in data set [1] (after EC17 administration, especially after the third dose) is “mild body weight loss”. Besides, the “CRS grade (0-5 scale)” value in data set [2] (day 13, after EC17 500 nmol/kg on day 12) is given as 3 grade; in data set [2] (days 4 and 11, after EC17 500 and 100 nmol/kg on days 3 and 10, ~35 million CAR-T cells), 1-2 grade.

The values above are taken from patent US11779602B2, “Methods of use for CAR T cells” (ENDOCYTE, INC., priority 2018, dated 2023).
